Several values for one entry are separate records, joined by “and”; a condition that tells them apart may be missing. Equal entries are not always repeated.
System: 993429-296-R-J1-PDC complex spheroid growth, percent test/control
Assay: Anticancer human tumor 993429-296-R-J1-PDC patient-derived uterine sarcoma cell line growth inhibition [Asc]
Details: for viability, T/C: stronger effect = lower value
Experimental: Multicellular complex tumor spheroid response to apoptosis pathway targeting inhibitors Alrizomadlin, Pelcitoclax, and Dasminapant in combination with a variety of drugs and investigational agents in selected tumor cell lines
The MDM2 inhibitor alrizomadlin, the Bcl-2/Bcl-xL inhibitor pelcitoclax, and the IAPs inhibitor dasminapant were evaluated both individually and in combination with standard of care and investigational anticancer small molecules within a complex spheroid model of solid tumors. . Complex spheroids include a stromal component modeled by human endothelial cells (HUVEC) and fibroblasts modeled by human mesenchymal stem cells (MSCs). The concentration ranges selected for each drug and investigational agent were based upon clinically achievable concentrations if the clinical Cmax of the agent was known.
Compounds. The drugs and investigational agents: alrizomadlin (APG-115; NSC831270), pelcitoclax (APG-1252; NSC835773), dasminapant (APG-1387;NSC834197), TAK-243 (NSC785004), copanlisib (NSC809693), olaparib (NSC753686), talazoparib (NSC767125), cobimetinib (NSC 768068), eltanexor (KPT-8602, NSC 794443), abemaciclib (NSC 768073), sotorasib (NSC818433), adagrasib (NSC 831453), MRTX-1133 (NSC 836407), Iadademestat (ORY1001, NSC 806812), and RMC-4630 (NSC839698), were obtained from the NCI Developmental Therapeutics Program Chemical Repository. The FDA-approved anticancer drug set is available from the Developmental Therapeutics Program at https://dtp.cancer.gov/organization/dscb/obtaining/available plates.htm. […] The stock solutions were prepared in dimethyl sulfoxide (DMSO, Sigma-Aldrich, St. Louis, MO, cat. D2650) at 800-fold the tested concentration and stored at -70 degrees C prior to their use. All drugs and investigational agents were tested over a range starting from a high concentration at or near the clinical Cmax and decreasing in half-log increments. If the clinical Cmax for an agent had not been determined, the highest concentration tested was 10 microM.
The patient-derived cancer (PDC) cell lines include five colon adenocarcinomas: 186277-243-T-J2-PDC, 616215-338-R-J1-PDC, 439559-082-T-J2-PDC, 463943-066-T-J2-PDC, and 519858-162-T-J1-PDC; three pancreatic carcinomas: 323965-272-R-J2-PDC, 521955-158-R6-J3-PDC, and 521955-158-R2-J5-PDC; two uterine sarcomas: 327498-152-R-J2-PDC and 993429-296-R-J1-PDC; two rhabdomyosarcomas: 755483-174-R-J1-PDC and 772245-204-R-J1-PDC; two soft tissue sarcomas: 126254-015-R-J1-PDC and 494315-158-R-J1-PDC; two malignant fibrous histiocytomas: 317291-083-R-J1-PDC and 596521-263-R-J1-PDC; two breast carcinomas: 171881-019-R-J1-PDC and 885512-296-R-J2-PDC; and one ovarian carcinoma: 6556581-035-R-J-PDC were obtained from the NCI PDMR, (https://pdmr.cancer.gov). The established cell lines HSSY-2 synovial sarcoma (RRID:CVCL 8719), SYO-1 synovial sarcoma (RRID:CVCL_7146), MPNST malignant peripheral neural sheath tumor were obtained from the Sloan Kettering Institute. The following established cell lines were purchased from the American Type Culture Collection (ATCC, Manassas, VA), Sor the received from the NCI repository:, PANC-1 pancreatic carcinoma (CRL-1469, RRID:CVCL_0480), OVCAR-5 ovarian carcinoma (RRID:CVCL_1628), OVCAR-8 ovarian carcinoma (RRID:CVCL_1629), , MCF-7 breast carcinoma (CRL-12584, RRID:CVCL_0031), MDA-MB-231 breast carcinoma (CRL-12532, RRID:CVCL_0062), NCI-H1876 small cell lung carcinoma (CRL-5902, RRID:CVCL_1503), NCI-H510A small cell lung carcinoma (HTB-184, RRID:CVCL_1565), NCI-H1417 (CRL-5869, RRID:CVCL_1469), and NCI-H196 small cell lung carcinoma (CRL-5823, RRID:CVCL_1509). Dr. Peter Houghton (Greehey Children's Cancer Research Institute, University of Texas Health Science Center, San Antonio, TX) provided Rh-18 rhabdomyosarcoma (RRID:CVCL_1659). Pooled donor human umbilical vein endothelial cells (HUVEC, Lonza, cat. CC-2519) and human mesenchymal stem cells (hMSC, Lonza, cat. PT-2501) were purchased from Lonza (Walkersville, MD).
Cell Culture. […]
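Also: spheroids exposed to compounds for seven days.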

CNC(C)C(=O)NC1CN(S(=O)(=O)c2cccc(S(=O)(=O)N3CCC4CCC(C(=O)NC(c5ccccc5)c5ccccc5)N4C(=O)C(NC(=O)C(C)NC)C3)c2)CCC2CCC(C(=O)NC(c3ccccc3)c3ccccc3)N2C1=O (stereo unspecified)
viability, T/C (compound 0.00316 µM): 80% and 76.5%
viability, T/C (compound 0.01 µM): 68.6% [middle of 15 runs]
viability, T/C (compound 0.0316 µM): 62.4% [middle of 15 runs]
viability, T/C (compound 0.1 µM): 55.9% [middle of 15 runs]
viability, T/C (compound 1 µM): 50.4% [middle of 15 runs]
IC50 (curve of compound): > 1 µM

CCN1C(C(=O)NC23CCC(C(=O)O)(CC2)CC3)C(c2cccc(Cl)c2F)C2(C(=O)Nc3cc(Cl)ccc32)C12CCCCC2 (stereo unspecified) + Cc1c(S(C)(=O)=O)c(-c2cc(F)cc(N3CCN(c4ccc(NS(=O)(=O)c5ccc(NC(CCN6CCC(C(=O)OCCCP(=O)(O)O)CC6)CSc6ccccc6)c(S(=O)(=O)C(F)(F)F)c5)cc4)CC3)c2)c(-c2ccc(Cl)cc2)n1C(C)C
IC50 (curve of first compound, second compound 0.1 µM): > 3 µM
IC50 (curve of first compound, second compound 0.316 µM): 1.27 µM
IC50 (curve of first compound, second compound 1 µM): 0.951 µM
IC50 (curve of first compound, second compound 3.16 µM): < 0.00949 µM
IC50 (curve of first compound, second compound 10 µM): > 3 µM
viability, T/C (second compound 0.1 µM, first compound 0.00949 µM): 88.1%
viability, T/C (second compound 0.1 µM, first compound 0.03 µM): 76.6%
viability, T/C (second compound 0.1 µM, first compound 0.0949 µM): 94.8%
viability, T/C (second compound 0.1 µM, first compound 0.3 µM): 66.4%
viability, T/C (second compound 0.1 µM, first compound 0.949 µM): 62.8%
viability, T/C (second compound 0.1 µM, first compound 3 µM): 58.5%
viability, T/C (second compound 0.316 µM, first compound 0.00949 µM): 63.1%
viability, T/C (second compound 0.316 µM, first compound 0.03 µM): 68.6%
viability, T/C (second compound 0.316 µM, first compound 0.0949 µM): 68.4%
viability, T/C (second compound 0.316 µM, first compound 0.3 µM): 55.5%
viability, T/C (second compound 0.316 µM, first compound 0.949 µM): 54.8%
viability, T/C (second compound 0.316 µM, first compound 3 µM): 39.9%
viability, T/C (second compound 1 µM, first compound 0.00949 µM): 57.6%
viability, T/C (second compound 1 µM, first compound 0.03 µM): 50.8%
viability, T/C (second compound 1 µM, first compound 0.0949 µM): 50.7%
viability, T/C (second compound 1 µM, first compound 0.3 µM): 61.4%
viability, T/C (second compound 1 µM, first compound 0.949 µM): 48%
viability, T/C (second compound 1 µM, first compound 3 µM): 28.4%
viability, T/C (second compound 3.16 µM, first compound 0.00949 µM): 47.1%
viability, T/C (second compound 3.16 µM, first compound 0.03 µM): 51.9%
viability, T/C (second compound 3.16 µM, first compound 0.0949 µM): 43.1%
viability, T/C (second compound 3.16 µM, first compound 0.3 µM): 44.4%
viability, T/C (second compound 3.16 µM, first compound 0.949 µM): 30.8%
viability, T/C (second compound 3.16 µM, first compound 3 µM): 22.3%
viability, T/C (second compound 10 µM, first compound 0.00949 µM): 81.3%
viability, T/C (second compound 10 µM, first compound 0.03 µM): 91.9%
viability, T/C (second compound 10 µM, first compound 0.0949 µM): 62.4%
viability, T/C (second compound 10 µM, first compound 0.3 µM): 67.7%
viability, T/C (second compound 10 µM, first compound 0.949 µM): 78.2%
viability, T/C (second compound 10 µM, first compound 3 µM): 51.1%

— PubChem BioAssay AID1963446 (Molecular Pharmacology Branch, DTP, NCI, 2024)
